According to EP4722219A1 (Gan & Lee Pharmaceuticals Co., Ltd., priority 2023, dated 2024):
pIC50: −log10 of the molar value.

What was measured:
Assay type in all cases: cell-based
[1] = target: T1, ERα (Homo sapiens, UniProt P03372); assay: ERα degradation in T-47D cells (Western blot); details: 4 hours
T1 sequence (P03372 1-595): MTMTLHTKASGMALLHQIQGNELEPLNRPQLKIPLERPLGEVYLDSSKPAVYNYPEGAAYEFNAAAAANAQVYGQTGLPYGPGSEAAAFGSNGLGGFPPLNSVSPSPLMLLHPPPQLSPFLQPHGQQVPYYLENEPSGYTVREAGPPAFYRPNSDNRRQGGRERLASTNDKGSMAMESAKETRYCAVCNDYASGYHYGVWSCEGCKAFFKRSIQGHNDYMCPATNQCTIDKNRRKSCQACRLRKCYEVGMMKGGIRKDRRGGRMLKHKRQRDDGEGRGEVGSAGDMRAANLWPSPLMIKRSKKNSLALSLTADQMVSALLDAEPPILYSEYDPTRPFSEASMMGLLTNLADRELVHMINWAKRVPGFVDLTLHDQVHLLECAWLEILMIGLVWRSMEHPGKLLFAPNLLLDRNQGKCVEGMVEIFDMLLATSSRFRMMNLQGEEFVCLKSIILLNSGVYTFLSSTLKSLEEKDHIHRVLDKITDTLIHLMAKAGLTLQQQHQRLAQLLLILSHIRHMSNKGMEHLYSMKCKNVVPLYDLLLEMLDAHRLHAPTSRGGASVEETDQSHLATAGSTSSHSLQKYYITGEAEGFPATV
Protocol: (§1) Western blotting: The total protein concentration in the collected cell lysate supernatant was determined using the BCA protein concentration assay kit (enhanced) (P0009, Beyotime). Based on the total protein concentration determined by BCA, the protein concentration was adjusted to 1 µg/µL using RIPA lysis buffer and 5× SDS-PAGE protein loading buffer (MB01015, GenScript). The protein was denatured in a 95°C water bath for 5 minutes. After denaturation, the condensed water on the tube wall was collected by centrifugation and used as the loading sample. 20µL of the loading sample (20 µg of total protein) was added to the sample well of a 12% precast gel (M00669, GenScript). Electrophoresis was performed at 100 V for 20 minutes, followed by switching to 150 V for 40 minutes. After electrophoresis, the proteins from the SDS-PAGE gel were transferred to a PVDF membrane at a constant voltage of 100 V for 60 minutes. After transfer, the PVDF membrane corresponding to the ERα protein and internal reference protein was cut and incubated in 1× QµickBlock blocking buffer (P0252, Beyotime) for 30 minutes at room temperature on a shaker. After blocking, the ERα primary antibody (1:1000, 8644S, CST) was added and incubated overnight at 4°C on a shaker. The PVDF membrane was washed three times with 1× TBST buffer for 5 minutes each. Rabbit IgG (H+L) secondary antibody (1:7500, SA5-35571, Invitrogen) was added and incubated for 1 hour at room temperature on a shaker. The membrane was then washed again three times with 1× TBST buffer for 5 minutes each. Finally, the membrane was imaged using a dual-color infrared laser imaging system (Odyssey DLx, LICOR). Protein maps were analyzed for grayscale value using Image Studio Lite software. The grayscale correction value for each sample was calculated using the formula: grayscale correction value = grayscale value of the target protein / grayscale value of the corresponding internal reference. Then the grayscale correction values of the compound group and the control group were compared to calculate the degradation rate of the compound. Table 4 Degradation rate of ERα by PROTAC compounds of the present invention and positive control in MCF-7 cells (%)
Test Example 5 Degradation of ERα by the PROTAC compounds disclosed in the present invention in T-47D cells
T-47D (ATCC) cells were cultured in PRMI-1640 medium (30-2001, ATCC) containing 10% FBS (10099141C, Gibco) at 37°C and 5% CO2 until they entered the logarithmic growth phase. T-47D cells were seeded at a density of 3×10^5 cells/well in a 6-well plate and incubated at 37°C, 5% CO2 for 24 hours. After cell attachment, 1 µL of compound dimethyl sulfoxide solution (final concentration 0.15-1000 nM) was added and incubated for another 4 hours at 37°C, 5% CO2 incubator. After 4 hours, the culture medium was discarded, and each well was washed once with 1 mL of pre-chilled 1× DPBS. The cells were then lysed with 50 µL of RIPA lysis buffer (P0013B, Beyotime) and 1× protease inhibitor cocktail (P1005, Beyotime). After incubation on ice for 20 minutes, the cells were centrifuged at 14,000 g at 4°C for 30 minutes. The supernatant was carefully collected and analyzed for ERα protein levels by immunoblotting. Table 5 Degradation rate of ERα by PROTAC compounds of the present invention and positive control sample in T-47D cells (%)

[2] = system: T-47D cells; assay: Inhibition of cell proliferation in T-47D cells (CCK-8); details: 6 days treatment, CCK-8 cell viability
Summary of the method: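 T-47D cells (3,000/well) in RPMI-1640 with 10% FBS were exposed to a concentration range of PROTAC compounds for 6 days at 37 °C, 5% CO2. Viability read by CCK-8; IC50 fitted from inhibition rate.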

[3] = target: T1, ERα; assay: ERα degradation in MCF-7 cells (Western blot); set-up: host or cells: MCF-7; details: 4 hours
Protocol: Test Example 4 Effect of PROTAC Compounds Disclosed in the Present Invention on ERα Degradation in MCF-7 Cells
MCF-7 (ATCC) cells were cultured in DMEM medium (11995-065, Gibco) containing 10% FBS (10099141C, Gibco) at 37°C and 5% CO2 until they entered the logarithmic growth phase. MCF-7 cells were plated at a density of 3×10^5 cells/well in a 6-well plate and incubated at 37°C, 5% CO2 for 24 hours. After cell attachment, 1µL of compound in dimethyl sulfoxide (final concentration 0.15-1000nM) was added and incubated for another 4 hours at 37°C, 5% CO2 incubator. After 4 hours, the culture medium was discarded, and each well was washed once with 1 mL of pre-chilled 1× DPBS. The cells were then lysed with 50 µL of RIPA lysis buffer (P0013B, Beyotime) and 1× protease inhibitor cocktail (P1005, Beyotime). After incubation on ice for 20 minutes, the cells were centrifuged at 14,000 g at 4°C for 30 minutes. The supernatant was carefully collected and analyzed for ERα protein levels by immunoblotting.
as §1

[4] = system: MCF-7 cells; assay: Inhibition of cell proliferation in MCF-7 cells (CCK-8); details: MCF-7 cell proliferation, 6 days treatment
Summary of the method: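 MCF-7 cells, 800 per well in DMEM plus 10% FBS, exposed to graded PROTAC concentrations for 6 days at 37 °C, 5% CO2. Viability by CCK-8; IC50 fitted from inhibition rates.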

Row | Structure (SMILES) | Degradation rate of ERα in T-47D cells (%) ([1]; 1nM) | Degradation rate of ERα in T-47D cells (%) ([1]; 10nM) | pIC50 ([2]; Homo sapiens, T47D, 144 h) | Degradation rate of ERα in MCF-7 cells (%) ([3]; 1nM) | Degradation rate of ERα in MCF-7 cells (%) ([3]; 10nM) | pIC50 ([4]; Homo sapiens, MCF7, 144 h) | pIC50 [2] | pIC50 [4]
1 | Cn1c(=O)n(C2CCC(=O)NC2=O)c2cc3c(cc21)C1(CCN(C2CCN(c4ccc([C@@H]5c6ccc(O)cc6CC[C@@H]5c5ccccc5)cc4)CC2)CC1)CO3 (stereo partly drawn) [ER-P-11, 3-(1'-(1-(4-((1R,2S)-6-hydroxy-2-phenyl-1,2,3,4-tetrahydronaphthalen-1-yl)phenyl)piperidin-4-yl)-1-methyl-2-oxo-1,2-dihydro-3H,6H-spiro[benzofuro[5,6-d]imidazole-7,4'-piperidin]-3-yl)piperidine-2,6-dione] | 12 | 12 | 7.68 | -18 | -33 | 5.45 | – | –
2 | O=C1CCC(N2Cc3c(ccc4c3OCC43CCC4(CC3)CN(C3CCN(C(=O)C5CCN(c6ccc([C@@H]7c8ccc(O)cc8CC[C@@H]7c7ccccc7)cc6)CC5)CC3)C4)C2=O)C(=O)N1 (stereo partly drawn) [ER-P-6] | 61 | 83 | 9.07 | 55 | 71 | > 9.59 | – | –
3 | Cn1c(=O)n(C2CCC(=O)NC2=O)c2cc3c(cc21)C1(CCN(C2CCC4(CC2)CN(c2ccc([C@@H]5c6ccc(O)cc6CC[C@@H]5c5ccccc5)cc2)C4)CC1)CO3 (stereo partly drawn) [ER-P-59] | 40 | 63 | 9.02 | 14 | 18 | 9.06 | – | –
4 | C[C@@H]1Cc2cc(O)ccc2C(c2c(F)cc(N3CCC4(CCC(N5CCC6(CC5)COc5c6ccc6c5n(C)c(=O)n6C5CCC(=O)NC5=O)CC4)CC3)cc2F)N1CC(F)F (stereo partly drawn) [ER-P-29, 3-(1'-(3-(4-((3R)-2-(2,2-difluoroethyl)-6-hydroxy-3-methyl-1,2,3,4-tetrahydroisoquinolin-1-yl)-3,5-difluorophenyl)-3-azaspiro[5.5]undecan-9-yl)-1-methyl-2-oxo-1,2-dihydro-3H,7H-spiro[benzofuro[6,7-d]imidazole-6,4'-piperidin]-3-yl)piperidine-2,6-dione] | 53 | 41 | 9.04 | 54 | 25 | 6.85 | – | –
5 | O=C1CCC(N2Cc3c(ccc4c3OCC43CCC4(CC3)CN(C3CCC5(CC3)CCN(c3ccc([C@@H]6c7ccc(O)cc7CC[C@@H]6c6ccccc6)cc3)CC5)C4)C2=O)C(=O)N1 (stereo partly drawn) [ER-P-9] | 46 | 83 | 8.71 | 30 | 71 | 8.13 | – | –
6 | COc1c(C(=O)N[C@H]2CCC(=O)NC2=O)ccc2c1OC[C@H]1CN(CC3CCC(OC4CCN(c5ccc([C@@H]6c7ccc(O)cc7CC[C@@H]6c6ccccc6)cc5)CC4)CC3)CCN21 (stereo partly drawn) [ER-P-48, (R)-N-((S)-2,6-dioxopiperidin-3-yl)-3-(((1S,4S)-4-((1-(4-((1R,2S)-6-hydroxy-2-phenyl-1,2,3,4-tetrahydronaphthalen-1-yl)phenyl)piperidin-4-yl)oxy)cyclohexyl)methyl)-7-methoxy-1,2,3,4,4a,5-hexahydrobenzo[b]pyrazi no[1,2-d][1,4]oxazine-8-carboxamide] | 6 | 0 | – | 13 | -1 | – | 6.94 | 5.13
7 | O=C1CC[C@H](NC(=O)c2cc3c(cc2F)N2CCN(C[C@H]4CC[C@@H](OC5CCN(c6ccc([C@@H]7c8ccc(O)cc8CC[C@@H]7c7ccccc7)cc6)CC5)CC4)C[C@@H]2CO3)C(=O)N1 [ER-P-67, (R)-N-((S)-2,6-dioxopiperidin-3-yl)-9-fluoro-3-(((1S,4S)-4-((1-(4-((1R,2S)-6-hydroxy-2-phenyl-1,2,3,4-tetrahydronaphthalen-1-yl)phenyl)piperidin-4-yl)oxy)cyclohexyl)methyl)-1,2,3,4,4a,5-hexahydrobenzo[b]pyrazi no[1,2-d][1,4]oxazine-8-carboxamide] | 6 | 20 | 7.03 | 28 | 13 | 5.52 | – | –
8 | Cn1c(=O)n(C2CCC(=O)NC2=O)c2ccc3c(c21)OCC31CCN(C[C@H]2CC[C@@H](OC3CCN(c4ccc([C@@H]5c6ccc(O)cc6CC[C@@H]5c5ccccc5)cc4)CC3)CC2)CC1 (stereo partly drawn) [ER-P-54, 3-(1'-(((1S,4S)-4-((1-(4-((1R,2S)-6-hydroxy-2-phenyl-1,2,3,4-tetrahydronaphthalen-1-yl)phenyl)piperidin-4-yl)oxy)cyclohexyl)methyl)-1-methyl-2-oxo-1,2-dihydro-3H,7H-spiro[benzofuro[6,7-d]imidazole-6,4'-piperidin]-3-yl)piperidine-2,6-dione] | 67 | 81 | 9.82 | 50 | 76 | 5.99 | – | –
